Data on 1 compound can be found in paper PMC6438731, “Extrasynaptic δ‐GABAA receptors are high‐affinity muscimol receptors” (Journal of Neurochemistry, 2019).

Read-outs that look alike come from different tables or passages of the source.

The target in assay [1] is T1, recombinant α4β3δ receptors (Homo sapiens, UniProt O14764+P28472+P48169).
T1 construct: expressed in transfected cells; host or cells: Xenopus laevis oocytes injected with cRNA
The experiment in a line: Muscimol currents, two electrode voltage clamp in Xenopus oocytes, α4β3δ. Type of assay: cell-based. The source says:
(§1) Human α4, α6, β3, and δ cDNA clones for oocyte expression were made by PCR amplification of the coding region (NcoI site introduced with the amplifying 5′ oligonucleotide at the ATG initiation codon) and a HindIII (or SpeI) containing oligo) and cloning it into a NcoI‐HindIII (or SpeI) cut vector backbone derived from pEGFP‐N1 (Addgene 6085‐1). The entire transcribed region was confirmed by sequencing to ensure that protein sequences conform to consensus sequences found in the RefSeq database (https://www.ncbi.nlm.gov/RefSeq). Plasmids were linearized with NotI (New England Biolabs) and cRNA was transcribed, using T7 RNA polymerase (Ambion, mMESSAGE mMACHINE T7 Transcription Kit, Ambion Austin TX, USA, Cat. No. 1344). Xenopus laevis (Nasco, product number LM00531) oocytes were prepared from oocyte lobes shared by Dr. Olcese (UCLA, Anesthesiology). The oocytes were injected with 2 ng of each α6 and β3 subunit cRNA alone or together with 10 ng δ cRNA. Currents were measured 5–10 days after injection by two electrode voltage clamp using an Axoclamp 2B amplifier and pCLAMP software. Drug solutions were applied in ND96 (in mM 96 NaCl, 2 KCl, 1.8 CaCl2, 1 MgCl2, 5 HEPES pH 7.4) by gravity perfusion with bath exchange time of about 2 s. Muscimol was prepared as an aqueous 100 mM stock solution.

The target in assay [2] is T2, recombinant α4β3 receptors (Homo sapiens, UniProt P28472+P48169).
T2 construct: expressed in transfected cells; host or cells: Xenopus laevis oocytes injected with cRNA
T2 sequence (P48169 36-554): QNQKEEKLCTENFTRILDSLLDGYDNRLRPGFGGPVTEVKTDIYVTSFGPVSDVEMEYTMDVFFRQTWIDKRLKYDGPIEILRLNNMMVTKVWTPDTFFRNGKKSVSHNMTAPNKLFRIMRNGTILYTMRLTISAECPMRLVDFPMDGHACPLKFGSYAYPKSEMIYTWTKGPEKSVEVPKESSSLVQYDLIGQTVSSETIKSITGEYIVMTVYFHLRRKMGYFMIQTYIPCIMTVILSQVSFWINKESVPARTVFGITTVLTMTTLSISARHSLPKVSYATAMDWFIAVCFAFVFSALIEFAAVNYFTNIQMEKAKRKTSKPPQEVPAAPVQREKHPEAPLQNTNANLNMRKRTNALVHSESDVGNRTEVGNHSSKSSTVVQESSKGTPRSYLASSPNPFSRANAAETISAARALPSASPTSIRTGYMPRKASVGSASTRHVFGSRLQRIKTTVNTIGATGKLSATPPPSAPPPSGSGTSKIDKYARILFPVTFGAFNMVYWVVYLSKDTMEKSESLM
T2 sequence (P28472 26-473): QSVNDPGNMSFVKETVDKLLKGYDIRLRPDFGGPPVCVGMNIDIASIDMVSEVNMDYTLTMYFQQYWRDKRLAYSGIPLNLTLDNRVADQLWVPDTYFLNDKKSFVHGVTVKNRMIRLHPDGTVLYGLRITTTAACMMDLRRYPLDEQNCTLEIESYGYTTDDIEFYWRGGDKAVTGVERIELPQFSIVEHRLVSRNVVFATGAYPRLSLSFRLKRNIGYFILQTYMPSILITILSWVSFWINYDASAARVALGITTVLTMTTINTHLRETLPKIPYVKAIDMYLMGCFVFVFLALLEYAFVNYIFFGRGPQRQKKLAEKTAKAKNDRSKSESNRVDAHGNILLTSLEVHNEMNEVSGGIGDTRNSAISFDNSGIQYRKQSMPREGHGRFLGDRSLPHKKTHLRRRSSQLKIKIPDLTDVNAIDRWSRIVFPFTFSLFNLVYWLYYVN
The assay is described as follows: Muscimol currents, two electrode voltage clamp in Xenopus oocytes, α4β3. The note with it: α4β3‐injected oocytes, without δ. Type of assay: cell-based.
Text: as §1

Assay [3] relates to different GABAAR subtypes. The experiment in a line: Affinity of muscimol compared with GABA across GABAAR subtypes. The note with it: across the board for different GABAAR subtypes.
For assay [4], the target named is α4β3δ receptors. On the set-up: method as in Mortensen et al. 2010. The note with it: recombinantly expressed α4β3δ receptors, ref Mortensen et al. 2010; read-out: muscimol EC50; cited from earlier work.
The target in another assay is α6β3δ receptors. On the set-up: method as in Stórustovu and Ebert 2006. The note with it: recombinantly expressed α6β3δ receptors, ref Stórustovu and Ebert 2006; read-out: muscimol EC50; cited from earlier work.
Assay [5] addresses α4β3δ receptors. Details: method as in Stórustovu and Ebert 2006. The note with it: recombinantly expressed α4β3δ receptors, ref Stórustovu and Ebert 2006; read-out: muscimol EC50; cited from earlier work.
A further assay relates to α1βγ2 GABAARs. On the set-up: method as in Karim et al. 2013. The note with it: ref Karim et al. 2013; cited from earlier work.

T1 sequence (P48169 36-554): as the sequence (P48169 36-554) above
T1 sequence (P28472 26-473): as the sequence (P28472 26-473) above
T1 sequence (O14764 25-452): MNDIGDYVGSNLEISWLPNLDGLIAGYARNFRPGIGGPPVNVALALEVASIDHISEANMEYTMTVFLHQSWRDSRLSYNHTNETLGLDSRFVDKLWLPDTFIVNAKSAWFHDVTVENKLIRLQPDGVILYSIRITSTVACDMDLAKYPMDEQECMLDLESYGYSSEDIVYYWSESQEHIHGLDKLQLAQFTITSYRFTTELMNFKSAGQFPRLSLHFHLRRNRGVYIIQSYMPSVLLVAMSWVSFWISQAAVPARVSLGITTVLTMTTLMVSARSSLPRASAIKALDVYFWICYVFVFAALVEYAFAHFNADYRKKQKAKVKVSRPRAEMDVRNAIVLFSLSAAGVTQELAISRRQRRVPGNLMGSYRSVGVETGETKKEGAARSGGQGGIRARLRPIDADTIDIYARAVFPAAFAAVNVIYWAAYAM

In the case of `NCc1cc(=O)[nH]o1` [muscimol], the EC50 in assay [1] (α4β3δ in Xenopus oocytes, estimated/approximate, read-out: EC50 of the high‐muscimol affinity (slowly deactivating) current component) was 1 to 2 nM; on α4β3δ receptors [4] it was 200 nM; at α6β3δ receptors it was 160 nM; on α4β3δ receptors [5] it was 2280 nM; with α1βγ2 GABAARs, about 1000 nM. The “threshold muscimol concentration evoking currents” value in assay [1] (α4β3δ‐injected oocytes) was 0.1 nM; in assay [2] it was “about 30 nM”. In assay [3], the “higher affinity than GABA” value was 100–1000 times.
